Details of data set [1]: method as in PMID 16551570. The following applies: oral; cited from earlier work.
The nature of data set [2]: Open stability study (25 °C, 60% RH, open conditions). The following applies: after 4 weeks, content at day 0 set as 100%. Type of data set: physicochemical. On the procedure:
Open stability was conducted at 25 °C, 60% RH, under open conditions without package and nitrogen protection. Accelerated stability was conducted at 40 °C, 75% RH, packaged with aluminum foil bags. The ubiquinol polymorph II and UQ-NC cocrystal were taken out at various intervals during exposure (open stability at 0, 3, 7, 14, 21, and 28 days and accelerated stability at 0, 1, 2, 3, and 6 months).
An Agilent 1260 series HPLC was used to determine the content of ubiquinol. The HPLC was equipped with a quaternary pump (G1311C), diode-array detector (G1315D), and a 4.6 mm × 100 mm, 2.7 μm packing L1 column. The detector was set at 290 nm. A mobile phase consisting of methanol and n-hexane (85/15, v/v) was run for 10 min at 1.5 mL/min. An injection of 20 μL was performed and the column temperature was set at 35 °C.

Details of data set [3]: method as in PMID 33673604. The following applies: 1500 mg/day, multiple-system atrophy; cited from earlier work.
Details of data set [4]: method as in PMID 19096107. The following applies: patients changed from ubiquinone to ubiquinol; cited from earlier work.
A further data set relates to human dermal fibroblasts. The arrangement: method as in PMID 33482334. The following applies: compared to ubiquinone; cited from earlier work.
Details of data set [5]: method as in doi:10.1016/j.jff.2008.09.010. The following applies: single 100 mg/day dose, individuals of >60 years; cited from earlier work.
For data set [6] the following is noted: 200 mg/day with a main meal, 2-week supplementation, ten older men; cited from earlier work.
On the set-up of data set [7]: method as in PMID 7666987. The following applies: 5-year period; cited from earlier work.
Data set [8] can be described thus: Powder dissolution in simulated intestinal fluid (SIF) with 0.5% tween 80. Type of data set: physicochemical. The following applies: SIF with 0.5% tween 80, 37 °C, up to 180 min. On the procedure:
(§1) Powder dissolution experiments were conducted in simulated intestinal fluid (SIF) and simulated gastric fluid (SGF) with 0.5% tween 80 at 37 °C using a Mini-Bath dissolution device equipped with a Julabo ED-5 heater/circulator. SIF was prepared by dissolving 6.8 g of KH2PO4 in 500 mL of water and then the pH was adjusted to 6.8 with 0.1 mol/L og NaOH solution. In total, 10 g of pancreatin was added and finally the solution was diluted to 1000 mL with water to obtain the SIF. SGF was prepared by mixing 16.4 mL of 10% HCl solution, 800 mL of water, and 10g of pepsin. Finally, the solution was diluted to 1000 mL with water to obtain the SGF. A total of 9.3 mg of cocrystal and 8.2 mg of polymorph II were added into 20 mL of the buffer solution. The stirring speed was set to 75 rpm. To minimize the size effect on the dissolution results, the ubiquinol cocrystal and polymorph II were sieved through 80-mesh sieves. Samples were collected at 5, 15, 20, 25, 30, 40, 50, 60, 80, 130, and 180 min each time, and were filtered through the 0.45 μm nylon filters. The concentration of ubiquinol was determined using HPLC. The detailed HPLC analysis method is described in Section 2.10.
(§2) An Agilent 1260 series HPLC was used to determine the content of ubiquinol. The HPLC was equipped with a quaternary pump (G1311C), diode-array detector (G1315D), and a 4.6 mm × 100 mm, 2.7 μm packing L1 column. […]

On the set-up of data set [9]: method as in earlier work. The following applies: after four weeks, open conditions, 25 °C; cited from earlier work.
A short description of data set [10]: Pharmacokinetic study in male Sprague Dawley rats, plasma total coenzyme Q10. The following applies: rat, gavage, 100 mg/kg as ubiquinol equivalents. Type of data set: in vivo. On the procedure: Pharmacokinetic experiments were conducted on male Sprague Dawley rats to compare the oral exposure of the UQ-NC cocrystal and the ubiquinol marketed form II. The two ubiquinol samples were dispersed homogeneously in 0.5% CMC-Na (sodium carboxymethylcellulose) and 0.5% tween 80 aqueous solution to obtain the suspension of 10 mg/mL of ubiquinol. Twelve male Sprague Dawley rats weighing […] were randomly allocated into two groups (six rats in each group). Each received gavage administration at a dose of 100 mg/kg body (expressed as ubiquinol equivalents). After this administration, approximately 200 μL of blood sample was collected from the orbital sinus into heparinized tubes at 0, 1, 2, 3, 4, 6, 8, and 24 h for each rat.
In this experiment, the whole process was protected from light. An aliquot of 100 µL of plasma sample was added to 100 µL of p-benzoquinone and then placed for 10 min after vortex mixing. Next, a 400 µL methanol solution containing 1 µg/mL of IS Q9 and 1mL of n-hexane was added. The mixture was vortexed for 5 min and centrifuged at 14,000 rpm for 1 min. In total, 0.825 mL of the upper extract was transferred and dried under the condition of 30 °C nitrogen, and 200 µL of ethanol equal solution was added for re dissolution, vortexed, and mixed well. An aliquot of 4.00 µL of supernatant was injected for an LC-MS/MS analysis.
The quantification of coenzyme Q10 in the plasma samples was accomplished using an AB Sciex Triple Quad 4500 LC-MS instrument manufactured by SCIEX Co., Ltd., Framingham, MA, USA. Chromatography consisted of a Column NO.ZORBAX Eclipse Plus C18 (50 mm × 4.6 mm, 1.8 μm). The mobile phase consisted of acetonitrile and alcohol (50/50, v/v) at a flow rate of 1.0 mL min-1. An injection of 10 μL was performed and the column temperature was set to 40 °C. The detector was set at 290 nm. Multiple reaction monitoring modes (MRM) were used to perform the detection and quantification, with m/z 863.8→197.4 for coenzyme Q10. The DAS 2.0 program was used to perform the PK analysis.

Data set [11] is described as follows: Powder dissolution in simulated gastric fluid (SGF) with 0.5% tween 80. Format: physicochemical. The following applies: SGF with 0.5% tween 80, 37 °C, up to 180 min. On the procedure:
as §1, §2

As to `COC1=C(OC)C(=O)C(C/C=C(\C)CC/C=C(\C)CC/C=C(\C)CC/C=C(\C)CC/C=C(\C)CC/C=C(\C)CC/C=C(\C)CC/C=C(\C)CC/C=C(\C)CCC=C(C)C)=C(C)C1=O` [CoQ10, Coenzyme Q10], the “orally administered absorption efficiency” value in data set [1] is 2–3%.
In the case of `COc1c(O)c(C)c(C/C=C(\C)CC/C=C(\C)CC/C=C(\C)CC/C=C(\C)CC/C=C(\C)CC/C=C(\C)CC/C=C(\C)CC/C=C(\C)CC/C=C(\C)CCC=C(C)C)c(O)c1OC` [polymorph I, ubiquinol], the “assay value of ubiquinol” value in data set [2] came to 28.3%.
Take `COc1c(O)c(C)c(C/C=C(\C)CC/C=C(\C)CC/C=C(\C)CC/C=C(\C)CC/C=C(\C)CC/C=C(\C)CC/C=C(\C)CC/C=C(\C)CC/C=C(\C)CCC=C(C)C)c(O)c1OC` [ubiquinol]: in [3], the “decline in UMSARS part 2 score compared to placebo” value is on record as “significantly smaller decline” and the tolerability result was “well-tolerated”. In addition, in data set [4], the “symptoms of heart failure” value is given as “significantly improved”. Moreover, the “reverting the expression of the senescent phenotype (β-galactosidase positivity, p21, collagen type 1, elastin)” value in the data set with human dermal fibroblasts is listed as “more efficient”. In data set [5], the “increase of plasma AUC0–72h compared with ubiquinone” value is listed as 430% and the “plasma AUC0–72h compared with subjects receiving ubiquinone” value is on record as 4.3 fold. Further, the “plasma CoQ10 status” value in [6] is reported as “significant increase”.
`NC(=O)c1cccnc1` [nicotinamide]: in [7], the “reduction in the development of insulin-dependent diabetes mellitus” value was 50%.
As to `COc1c(O)c(C)c(C/C=C(\C)CC/C=C(\C)CC/C=C(\C)CC/C=C(\C)CC/C=C(\C)CC/C=C(\C)CC/C=C(\C)CC/C=C(\C)CC/C=C(\C)CCC=C(C)C)c(O)c1OC` [polymorph II, ubiquinol], in data set [8], the “AUC (dissolution)” value is 4500 µg·h/mL and the “Cmax (dissolution, ubiquinol concentration)” value is 90000 ng/mL. In addition, the “ubiquinol transformed to ubiquinone” value in data set [9] is listed as “about 6.9%”. In data set [10], the “AUC0–8h” value came to 0.1919 µg·h/mL, the Cmax is given as 71.2 ng/mL, the MRT was found to be 43.3 h and the T1/2 was determined as 29.9 h. Further, in data set [10], the Tmax stood at 8.0 h. Also, the “assay value of ubiquinol” value in data set [2] was 94.2%. In addition, in [11], the “AUC (dissolution)” value is 1500 µg·h/mL and the “Cmax (dissolution, ubiquinol concentration)” value was 30000 ng/mL.

The record behind these values is paper PMC10610044, “The Cocrystal of Ubiquinol: Improved Stability and Bioavailability” (Pharmaceutics, 2023).
